Several values for one entry are separate records, joined by “and”; a condition that tells them apart may be missing. Equal entries are not always repeated.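 How tested: cells in 96-well plates exposed to compound for 48 hours at five concentrations. GI50 is the concentration that inhibits growth by half. TGI is the concentration that stops growth completely.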
How the values were obtained:
Experiment in all cases: DTP human tumour cell line panel, 48 h
[1] = test system: EKVX NSCLC
[2] = test system: HCT-15 colon
[3] = test system: HOP-62 NSCLC
[4] = test system: IGROV1 ovarian
[5] = test system: K-562 leukemia
[6] = test system: SF-539 CNS
[7] = test system: SK-MEL-5 melanoma
[8] = test system: SR leukemia
[9] = test system: SW-620 colon
[10] = test system: UACC-62 melanoma

Structure (SMILES): CC1CN(CCO)CC(C)O1 (stereo not drawn)
- TGI [1]: > 100 µM
- TGI [2]: > 100 µM
- TGI [3]: > 100 µM
- TGI [4]: > 100 µM
- TGI [5]: > 100 µM
- TGI [6]: > 100 µM
- TGI [7]: > 100 µM
- TGI [8]: > 100 µM
- TGI [9]: > 100 µM
- TGI [10]: > 100 µM

Structure (SMILES): O=C(Cn1ccnc1[N+](=O)[O-])NCCO
- TGI [1]: > 100 µM
- TGI [2]: > 100 µM
- TGI [3]: > 100 µM
- TGI [4]: > 100 µM
- TGI [5]: > 100 µM
- TGI [6]: > 100 µM
- TGI [7]: > 100 µM
- TGI [8]: > 100 µM
- TGI [9]: > 100 µM
- TGI [10]: > 100 µM

Structure (SMILES): Cc1ccc(CCC(=O)Nc2ncc(Cc3cc(Cl)ccc3Cl)s2)o1
- GI50 [1]: 0.466 µM
- TGI [1]: > 100 µM
- GI50 [2]: 0.0546 µM
- TGI [2]: > 100 µM
- GI50 [3]: 0.38 µM
- TGI [3]: 15.1 µM
- GI50 [4]: 0.334 µM
- TGI [4]: 20.8 µM
- GI50 [5]: 0.0401 µM
- TGI [5]: > 100 µM
- GI50 [6]: 0.218 µM
- TGI [6]: 0.712 µM
- GI50 [7]: 0.0804 µM
- TGI [7]: 5.96 µM
- GI50 [8]: 0.0557 µM
- TGI [8]: 18.9 µM
- GI50 [9]: 0.0694 µM
- TGI [9]: > 100 µM
- GI50 [10]: 0.24 µM
- TGI [10]: > 100 µM

Structure (SMILES): COc1ccc(CN2CCc3c(Cl)nc(N)nc3C2=O)c(OC)c1
- GI50 [1]: 16.8 µM
- TGI [1]: 61.7 µM
- GI50 [2]: 10.4 µM
- TGI [2]: 24.3 µM
- GI50 [3]: 25.7 µM
- TGI [3]: 63.9 µM
- GI50 [4]: 7.56 µM
- TGI [4]: 26.9 µM
- GI50 [5]: 2.46 µM
- TGI [5]: 37.7 µM
- GI50 [6]: 15.8 µM
- TGI [6]: 31.7 µM
- GI50 [7]: 13.5 µM
- TGI [7]: 26.7 µM
- GI50 [8]: 1.03 µM
- TGI [8]: 10.7 µM
- GI50 [9]: 13.6 µM
- TGI [9]: 28.1 µM
- GI50 [10]: 13.5 µM
- TGI [10]: 27.6 µM

Structure (SMILES): O=C(Nc1ccc(Cl)cc1)NS(=O)(=O)c1ccc2c(c1)CCC2
- GI50 [1]: 22.4 µg/mL
- TGI [1]: > 100 µM and 72.1 µg/mL
- GI50 [2]: 16.3 µg/mL
- TGI [2]: > 90.2 µM and 41.8 µg/mL
- TGI [3]: > 100 µM
- GI50 [4]: 4.37 µg/mL
- TGI [4]: 94.3 µM and 18.7 µg/mL
- GI50 [5]: 11.3 µg/mL
- TGI [5]: > 77.1 µM and 150 µg/mL
- GI50 [6]: 17.6 µg/mL
- TGI [6]: > 69.2 µM and 37 µg/mL
- GI50 [7]: 20.6 µg/mL
- TGI [7]: > 74 µM and 40 µg/mL
- GI50 [8]: 19.3 µg/mL
- TGI [8]: > 100 µM and 91.6 µg/mL
- GI50 [9]: 10.6 µg/mL
- TGI [9]: > 100 µM and 33.6 µg/mL
- GI50 [10]: 15.9 µg/mL
- TGI [10]: > 84.7 µM and 36.7 µg/mL

Structure (SMILES): O=C(CCCCCCc1nc2ccc(Br)cc2[nH]1)NO
- GI50 [1]: 1.55 µM
- TGI [1]: 97.1 µM
- GI50 [2]: 1.69 µM
- TGI [2]: > 86.5 µM
- GI50 [3]: 0.632 µM
- TGI [3]: 14.6 µM
- GI50 [4]: 0.523 µM
- TGI [4]: 2.45 µM
- GI50 [5]: 0.357 µM
- TGI [5]: > 100 µM
- GI50 [6]: 0.97 µM
- TGI [6]: 31.3 µM
- GI50 [7]: 0.328 µM
- TGI [7]: 1.38 µM
- GI50 [8]: 0.148 µM
- TGI [8]: > 100 µM
- GI50 [9]: 0.266 µM
- TGI [9]: 1.04 µM
- GI50 [10]: 0.189 µM
- TGI [10]: 1.17 µM

Structure (SMILES): COC(=O)C(=O)C(C#N)c1cccc2ccccc12 (stereo not drawn)
- TGI [1]: > 100 µM
- TGI [2]: > 100 µM
- TGI [3]: > 100 µM
- TGI [4]: > 100 µM
- TGI [5]: > 100 µM
- TGI [6]: > 100 µM
- TGI [7]: > 100 µM
- TGI [8]: > 100 µM
- TGI [9]: > 100 µM
- TGI [10]: > 100 µM

Structure (SMILES): N#Cc1c(N)nn(C(=O)c2ccc(NC(=O)c3ccccn3)cc2)c1-c1ccc(Cl)cc1
- GI50 [1]: 6.96 µM
- TGI [1]: > 100 µM
- GI50 [2]: 5.04 µM
- TGI [2]: > 100 µM
- GI50 [3]: 2.53 µM
- TGI [3]: 8.37 µM
- GI50 [4]: 2.63 µM
- TGI [4]: 16.8 µM
- GI50 [5]: 6.62 µM
- TGI [5]: > 100 µM
- GI50 [6]: 3.21 µM
- TGI [6]: 12.5 µM
- GI50 [7]: 7.15 µM
- TGI [7]: > 100 µM
- GI50 [8]: 3.81 µM
- TGI [8]: > 100 µM
- GI50 [9]: 3.7 µM
- TGI [9]: > 100 µM
- GI50 [10]: 9.45 µM
- TGI [10]: > 100 µM

Structure (SMILES): O=C(CC(O)(c1ccccc1)c1ccc(Cl)cc1)NC(=O)c1ccccc1O (stereo not drawn)
- TGI [1]: 68.2 µM
- TGI [2]: 37.5 µM
- TGI [3]: 25.6 µM
- TGI [4]: > 100 µM
- TGI [5]: > 100 µM
- TGI [6]: 46.8 µM
- TGI [7]: 19.1 µM
- TGI [8]: 39.6 µM
- TGI [9]: > 100 µM
- TGI [10]: 21.3 µM

Structure (SMILES): Cc1cc(O)c2c(c1)C[C@@H](O)C1=C2C(=O)c2c(O)ccc(OC3CC(O)C(OC4CC(OC5CCC(OC6CC(O)C(OC7CC(OC8CCC(O)C(C)O8)C(O)C(C)O7)C(C)O6)C(C)O5)C(O)C(C)O4)C(C)O3)c2C1=O (stereo partly drawn)
- GI50 [1]: 1.7 µM and 1.37 µM
- GI50 [2]: 0.231 µM
- TGI [2]: 0.148 µM and 0.488 µM
- GI50 [3]: 1.97 µM and 2.76 µM
- GI50 [4]: 1.14 µM
- TGI [4]: 0.344 µM and 2.47 µM
- GI50 [5]: 0.144 µM
- TGI [5]: 0.267 µM and 0.457 µM
- GI50 [6]: 0.391 µM and 1.31 µM
- GI50 [7]: 1.33 µM and 1.2 µM
- GI50 [8]: 0.033 µM and 0.0475 µM
- GI50 [9]: 0.362 µM and 0.216 µM
- GI50 [10]: 0.237 µM and 0.315 µM
- TGI [10]: 0.134 µM and 0.658 µM and 1.18 µM

Structure (SMILES): Nc1nc2nc3c(nc2c(=O)[nH]1)CN(c1ccc(C(=O)O)cc1)C3=O
- TGI [1]: > 100 µM
- TGI [2]: > 100 µM
- TGI [3]: 83.7 µM
- TGI [4]: > 100 µM
- TGI [5]: > 100 µM
- TGI [6]: > 100 µM
- TGI [7]: > 100 µM
- TGI [8]: > 100 µM
- TGI [9]: > 100 µM
- TGI [10]: > 100 µM

Structure (SMILES): O=P(O)(O)OC1C(OP(=O)(O)O)C(OP(=O)(O)O)C(OP(=O)(O)O)C(OP(=O)(O)O)C1OP(=O)(O)O (stereo not drawn)
- GI50 [1]: > 100 µM
- TGI [1]: > 2000 µM
- GI50 [2]: > 2000 µM
- TGI [2]: > 2000 µM
- GI50 [3]: > 2000 µM
- TGI [3]: > 2000 µM
- GI50 [4]: > 2000 µM
- TGI [4]: > 2000 µM
- GI50 [5]: > 2000 µM
- TGI [5]: > 2000 µM
- GI50 [6]: > 2000 µM
- TGI [6]: > 2000 µM
- GI50 [7]: > 1560 µM
- TGI [7]: > 2000 µM
- GI50 [8]: > 1780 µM
- TGI [8]: > 2000 µM
- GI50 [9]: > 2000 µM
- TGI [9]: > 2000 µM
- GI50 [10]: > 2000 µM
- TGI [10]: > 2000 µM

Structure (SMILES): CCC12C=CCN3CC[C@]4(C(=C(C(=O)OC)[C@@H]1Nc1ncnc5c1ncn5C1OC(COC(C)=O)C(OC(C)=O)C1OC(C)=O)Nc1ccccc14)C32 (stereo partly drawn)
- TGI [1]: 16.2 µM
- TGI [2]: 7.79 µM
- TGI [3]: 5.83 µM
- TGI [4]: 7.31 µM
- TGI [5]: 17 µM
- TGI [6]: 4.4 µM
- TGI [7]: 8.47 µM
- TGI [8]: 6.17 µM
- TGI [9]: 5.31 µM
- TGI [10]: 10.3 µM

Structure (SMILES): COc1ccc(/C=C2/SC(=Nc3c(C)nn(-c4ccccc4)c3N)NC2=O)cc1
- GI50 [1]: 4.18 µM
- TGI [1]: 40 µM
- GI50 [2]: 3.64 µM
- TGI [2]: 30.7 µM
- GI50 [3]: 4.12 µM
- TGI [3]: 39.9 µM
- GI50 [4]: 5.2 µM
- TGI [4]: 28.8 µM
- GI50 [5]: 3.02 µM
- TGI [5]: > 100 µM
- GI50 [6]: 2.38 µM
- TGI [6]: 10.8 µM
- GI50 [7]: 3.23 µM
- TGI [7]: 10.5 µM
- GI50 [8]: 3.63 µM
- TGI [8]: 18 µM
- GI50 [9]: 3.31 µM
- TGI [9]: 13.9 µM
- GI50 [10]: 3.78 µM
- TGI [10]: 18.3 µM

Structure (SMILES): COc1cc(-c2cc(-c3ccc(N(C)C)cc3)nc(N3CCC(O)CC3)c2C#N)cc(OC)c1OC
- GI50 [1]: 0.461 µM
- TGI [1]: > 100 µM
- GI50 [2]: 0.306 µM
- TGI [2]: 1.86 µM
- GI50 [3]: 0.953 µM
- TGI [3]: 24.3 µM
- GI50 [4]: 0.555 µM
- TGI [4]: 38.4 µM
- GI50 [5]: 0.367 µM
- TGI [5]: 10.5 µM
- GI50 [6]: 0.82 µM
- TGI [6]: 3.24 µM
- GI50 [7]: 0.162 µM
- TGI [7]: 0.508 µM
- GI50 [8]: 0.432 µM
- TGI [8]: 2.94 µM
- GI50 [9]: 0.448 µM
- TGI [9]: > 35.6 µM
- GI50 [10]: 0.277 µM
- TGI [10]: 0.741 µM
